Laboratory results: ChEMBL document CHEMBL1201862, “PubChem BioAssay data set” (2004)
The source made the active and inactive calls.

Assays:
[1] = target: E3 ubiquitin-protein ligase Mdm2 (Homo sapiens, UniProt Q00987); test: enhancers of MDM2-luciferase reporter signal, concentration-effect titration, project on inhibitors of MDM2 ubiquitin ligase, cellular assay, luminescent readout, 384-well plate format (AID 1394); assay type: functional;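 note: MDM2 E3 inhibitors raise luminescence so EC50 is for signal enhancement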
[2] = target: T1, Protein skinhead-1 (Caenorhabditis elegans, UniProt P34707); assay type: functional
T1 sequence (P34707 whole entry): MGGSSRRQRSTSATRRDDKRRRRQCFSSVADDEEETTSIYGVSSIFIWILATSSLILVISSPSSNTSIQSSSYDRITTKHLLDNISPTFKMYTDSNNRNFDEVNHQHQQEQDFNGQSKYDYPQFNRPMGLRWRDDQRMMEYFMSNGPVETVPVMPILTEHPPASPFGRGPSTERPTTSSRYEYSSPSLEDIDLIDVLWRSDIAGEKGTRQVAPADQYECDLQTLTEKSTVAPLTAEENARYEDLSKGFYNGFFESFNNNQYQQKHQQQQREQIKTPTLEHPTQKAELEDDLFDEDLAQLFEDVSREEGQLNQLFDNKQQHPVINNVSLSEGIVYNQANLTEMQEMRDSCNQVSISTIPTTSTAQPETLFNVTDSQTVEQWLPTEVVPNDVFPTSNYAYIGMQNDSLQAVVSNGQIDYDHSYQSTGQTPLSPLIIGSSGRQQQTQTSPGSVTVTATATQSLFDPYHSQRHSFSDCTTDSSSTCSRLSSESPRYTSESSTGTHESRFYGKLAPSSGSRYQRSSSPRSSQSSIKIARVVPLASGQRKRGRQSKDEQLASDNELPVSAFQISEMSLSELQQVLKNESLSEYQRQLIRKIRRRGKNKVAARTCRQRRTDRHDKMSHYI

[3] = target: T2, Long-chain-fatty-acid--AMP ligase FadD28 (Mycobacterium tuberculosis, UniProt P9WQ59); test: Fluorescence polarization aasay to screen for inhibitors that compete for the binding of FadD28 to a bisubstrate Measured in Biochemical System Using Plate Reader - 2147-01_Inhibitor_Dose_CherryPick_Activity.; assay type: functional, Mycobacterium tuberculosis H37Rv
T2 sequence (P9WQ59 whole entry): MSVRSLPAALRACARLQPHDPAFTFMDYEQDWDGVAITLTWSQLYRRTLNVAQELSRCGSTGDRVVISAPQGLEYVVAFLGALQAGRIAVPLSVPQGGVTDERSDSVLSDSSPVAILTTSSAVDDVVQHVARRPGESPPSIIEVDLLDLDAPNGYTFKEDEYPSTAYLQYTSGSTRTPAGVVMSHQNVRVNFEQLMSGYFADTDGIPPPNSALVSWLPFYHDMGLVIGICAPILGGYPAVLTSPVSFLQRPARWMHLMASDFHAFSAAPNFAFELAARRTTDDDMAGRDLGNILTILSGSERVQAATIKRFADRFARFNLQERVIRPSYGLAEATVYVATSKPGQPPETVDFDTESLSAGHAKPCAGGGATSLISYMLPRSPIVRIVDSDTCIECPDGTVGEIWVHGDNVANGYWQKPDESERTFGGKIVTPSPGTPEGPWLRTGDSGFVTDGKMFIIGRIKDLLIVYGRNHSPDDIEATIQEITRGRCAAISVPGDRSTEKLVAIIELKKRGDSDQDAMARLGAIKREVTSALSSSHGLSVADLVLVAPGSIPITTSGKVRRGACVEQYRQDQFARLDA

[4] = target: T3, Fibrinogen beta chain (Homo sapiens, UniProt P02675); test: Fluorescence polarization-based biochemical high throughput dose response assay to identify inhibitors that disrupt the binding of a cyclic peptide (Tn6) to the fibrin proteolytic product D-Dimer and fragment E complex [DD(E )].
T3 sequence (P02675 whole entry): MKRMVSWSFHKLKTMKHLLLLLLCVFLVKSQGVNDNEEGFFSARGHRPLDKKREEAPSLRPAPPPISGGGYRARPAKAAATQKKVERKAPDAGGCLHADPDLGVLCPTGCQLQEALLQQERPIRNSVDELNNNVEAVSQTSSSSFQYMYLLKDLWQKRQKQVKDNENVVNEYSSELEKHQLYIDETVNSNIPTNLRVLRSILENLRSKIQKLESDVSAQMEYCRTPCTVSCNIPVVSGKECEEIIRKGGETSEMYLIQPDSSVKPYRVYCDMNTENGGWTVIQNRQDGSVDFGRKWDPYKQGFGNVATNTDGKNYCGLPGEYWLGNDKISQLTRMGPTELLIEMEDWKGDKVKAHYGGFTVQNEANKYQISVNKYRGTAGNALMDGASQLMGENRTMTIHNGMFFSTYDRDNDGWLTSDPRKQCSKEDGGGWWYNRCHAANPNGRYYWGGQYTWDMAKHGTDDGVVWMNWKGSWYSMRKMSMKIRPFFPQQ

[5] = target: T3, Fibrinogen beta chain; test: Fluorescence polarization-based biochemical high throughput dose response assay to identify inhibitors that disrupt the binding of a cyclic peptide (Tn7) to the fibrin proteolytic product D-Dimer and fragment E complex [DD(E )].
[6] = Luminescent dose response cell-based high throughput screening assay for inhibitors of the Janus kinase 2 mutant JAK2V617F. [Related pubchem assays: 1446 (Primary screen.), 1521 (Confirmation assay.), 1486 (Counter screen.)]; assay type: functional
[7] = target: Kallikrein-7 (Homo sapiens, UniProt P49862); test: Fluorescence Intensity-based biochemical primary high throughput dose response assay to identify activators of kallikrein-7 (K7) zymogen.
[8] = inhibitors of intracellular T. cruzi replication, confirmation, NIH3T3 host cells, beta-gal luminescence (AID 2044); assay type: functional, cell-based;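 note: intracellular parasites grown in NIH/3T3 mouse fibroblasts as host cells; luminescent beta-galactosidase reporter signal from transgenic T. cruzi replicating inside host cells; inhibitors lower the luminescence signal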
[9] = cytotoxicity toward NIH3T3 fibroblasts, dose response, counter-screen, cell-based, ATP luminescence, mouse fibroblasts (AID 2010); assay type: functional;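 note: cells exposed to compound for about 90 hours before reading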
[10] = target: T4, RNA-binding protein pos-1 (Caenorhabditis elegans, UniProt G5EF15); test: inhibitors of POS-1/mex-3 RNA binding, dose response, biochemical, fluorescence polarization (AID 1964);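 note: purified POS-1 fused to maltose binding protein made in E. coli; potency of compounds blocking POS-1 binding to fluorescent RNA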
T4 sequence (G5EF15 whole entry): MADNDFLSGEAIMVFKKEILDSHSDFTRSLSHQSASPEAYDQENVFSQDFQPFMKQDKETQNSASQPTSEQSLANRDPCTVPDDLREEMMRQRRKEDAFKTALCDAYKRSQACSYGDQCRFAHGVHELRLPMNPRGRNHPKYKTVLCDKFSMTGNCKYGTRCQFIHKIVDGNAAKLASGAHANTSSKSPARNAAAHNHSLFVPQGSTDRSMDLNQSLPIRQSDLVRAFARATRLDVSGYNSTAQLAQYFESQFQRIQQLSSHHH

[11] = target: T5, Zinc finger protein mex-5 (Caenorhabditis elegans, UniProt Q9XUB2); test: MEX-5/TCR-2 RNA interaction inhibitors, dose response, biochemical, C. elegans, fluorescence polarization (AID 1960)
T5 sequence (Q9XUB2 whole entry): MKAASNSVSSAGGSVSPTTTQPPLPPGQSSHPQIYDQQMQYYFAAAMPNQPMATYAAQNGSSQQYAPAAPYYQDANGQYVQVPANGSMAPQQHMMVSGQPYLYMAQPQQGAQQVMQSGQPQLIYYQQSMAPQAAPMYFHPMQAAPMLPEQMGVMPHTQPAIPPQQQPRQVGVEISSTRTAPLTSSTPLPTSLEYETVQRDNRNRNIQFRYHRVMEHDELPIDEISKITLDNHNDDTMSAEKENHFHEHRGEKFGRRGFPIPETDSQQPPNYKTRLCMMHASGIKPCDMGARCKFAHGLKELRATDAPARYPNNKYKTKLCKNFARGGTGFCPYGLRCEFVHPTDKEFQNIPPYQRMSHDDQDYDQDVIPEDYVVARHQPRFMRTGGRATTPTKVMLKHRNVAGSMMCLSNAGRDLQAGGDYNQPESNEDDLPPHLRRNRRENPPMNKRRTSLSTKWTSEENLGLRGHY

[12] = target: Large T antigen (Simian virus 40, UniProt P03070); assay type: functional, Betapolyomavirus macacae;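 note: Confirmatory-stage PubChem screen for compounds that inhibit SV40 T antigen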
[13] = M. tuberculosis growth inhibition, HTS (AID 449762); assay type: functional
[14] = THP-1 cell cytotoxicity, dose response, cytotoxicity control for Vif-APOBEC3G degradation inhibitor project, THP-1 cells (AID 1117359); assay type: functional; conditions: Human immunodeficiency virus 1, THP-1
[15] = target: T6, Mannose-6-phosphate isomerase (Homo sapiens, UniProt P34949); test: human PMI inhibitors, high substrate, primary screen, biochemical, fluorescence intensity, high mannose 6-phosphate (AID 1220)
T6 sequence (P34949 whole entry): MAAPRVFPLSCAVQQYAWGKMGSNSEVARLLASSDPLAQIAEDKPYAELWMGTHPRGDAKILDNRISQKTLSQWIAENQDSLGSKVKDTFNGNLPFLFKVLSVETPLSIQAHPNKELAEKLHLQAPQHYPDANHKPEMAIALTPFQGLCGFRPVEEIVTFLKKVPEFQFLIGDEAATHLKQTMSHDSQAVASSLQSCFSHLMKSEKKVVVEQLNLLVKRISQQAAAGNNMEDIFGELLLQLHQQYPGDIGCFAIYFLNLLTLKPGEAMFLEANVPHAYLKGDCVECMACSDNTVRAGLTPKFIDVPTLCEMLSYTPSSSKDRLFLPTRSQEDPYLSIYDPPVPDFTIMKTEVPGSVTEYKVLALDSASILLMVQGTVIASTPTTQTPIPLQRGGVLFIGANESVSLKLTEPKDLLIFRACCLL

[16] = target: T7, Histone-lysine N-methyltransferase NSD2 (Homo sapiens, UniProt O96028); assay type: biochemical
T7 sequence (O96028 whole entry): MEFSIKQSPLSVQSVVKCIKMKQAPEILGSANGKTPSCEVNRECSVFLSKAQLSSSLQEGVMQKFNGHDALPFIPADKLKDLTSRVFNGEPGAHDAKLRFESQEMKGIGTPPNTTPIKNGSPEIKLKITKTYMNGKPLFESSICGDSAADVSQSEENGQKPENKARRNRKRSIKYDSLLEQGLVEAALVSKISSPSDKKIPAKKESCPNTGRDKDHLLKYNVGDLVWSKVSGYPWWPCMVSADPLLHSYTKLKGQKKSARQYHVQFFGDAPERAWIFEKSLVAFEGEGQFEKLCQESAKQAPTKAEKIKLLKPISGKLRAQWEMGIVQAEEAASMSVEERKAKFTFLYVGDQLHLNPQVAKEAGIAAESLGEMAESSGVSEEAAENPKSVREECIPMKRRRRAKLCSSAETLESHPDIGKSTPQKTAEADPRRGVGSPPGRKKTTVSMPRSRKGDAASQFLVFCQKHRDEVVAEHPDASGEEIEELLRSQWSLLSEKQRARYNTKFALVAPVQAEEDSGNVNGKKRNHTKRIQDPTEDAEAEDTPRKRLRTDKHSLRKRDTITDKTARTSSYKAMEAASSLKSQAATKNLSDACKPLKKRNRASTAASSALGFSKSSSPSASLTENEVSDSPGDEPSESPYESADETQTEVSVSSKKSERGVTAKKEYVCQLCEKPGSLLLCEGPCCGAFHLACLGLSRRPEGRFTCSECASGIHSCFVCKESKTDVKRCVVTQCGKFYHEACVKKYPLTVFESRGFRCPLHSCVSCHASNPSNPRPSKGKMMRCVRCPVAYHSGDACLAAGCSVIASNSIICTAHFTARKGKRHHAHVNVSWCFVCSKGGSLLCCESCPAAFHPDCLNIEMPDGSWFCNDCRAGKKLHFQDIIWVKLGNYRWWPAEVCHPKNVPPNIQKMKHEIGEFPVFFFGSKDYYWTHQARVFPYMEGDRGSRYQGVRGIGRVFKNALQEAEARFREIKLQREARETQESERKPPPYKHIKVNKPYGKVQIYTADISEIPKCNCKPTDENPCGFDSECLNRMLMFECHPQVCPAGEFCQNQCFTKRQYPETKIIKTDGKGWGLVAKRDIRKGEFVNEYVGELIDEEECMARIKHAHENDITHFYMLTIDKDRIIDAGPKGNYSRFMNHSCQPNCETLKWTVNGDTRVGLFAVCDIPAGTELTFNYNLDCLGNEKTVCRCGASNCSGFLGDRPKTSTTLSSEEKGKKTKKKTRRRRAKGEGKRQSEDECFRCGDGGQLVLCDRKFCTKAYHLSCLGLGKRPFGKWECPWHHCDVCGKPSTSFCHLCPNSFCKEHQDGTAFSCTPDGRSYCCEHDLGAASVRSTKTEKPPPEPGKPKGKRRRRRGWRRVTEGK

[17] = inhibitors of Vif binding to APOBEC3G peptide, primary screen, biochemical, TR-FRET, GST-Vif 1-94, biotin-A3G peptide, dose response retest (AID 1117319); assay type: functional;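 note: TR-FRET signal of purified GST-Vif binding a biotinylated A3G peptide; inhibitors lower the FRET signal by blocking Vif and A3G binding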
[18] = P. falciparum Dd2 growth inhibitors, dose response, SYBR Green, dry powder samples, set 9 (AID 1159568); assay type: functional, cell-based

Kallikrein-7, sequence (P49862 whole entry): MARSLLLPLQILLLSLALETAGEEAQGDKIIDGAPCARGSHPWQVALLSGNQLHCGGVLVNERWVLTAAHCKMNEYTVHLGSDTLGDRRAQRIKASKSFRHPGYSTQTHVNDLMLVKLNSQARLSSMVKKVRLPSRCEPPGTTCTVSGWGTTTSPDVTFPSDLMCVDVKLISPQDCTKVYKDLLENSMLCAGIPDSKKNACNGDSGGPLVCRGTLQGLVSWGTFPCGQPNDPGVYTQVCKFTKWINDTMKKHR
E3 ubiquitin-protein ligase Mdm2, sequence (Q00987 whole entry): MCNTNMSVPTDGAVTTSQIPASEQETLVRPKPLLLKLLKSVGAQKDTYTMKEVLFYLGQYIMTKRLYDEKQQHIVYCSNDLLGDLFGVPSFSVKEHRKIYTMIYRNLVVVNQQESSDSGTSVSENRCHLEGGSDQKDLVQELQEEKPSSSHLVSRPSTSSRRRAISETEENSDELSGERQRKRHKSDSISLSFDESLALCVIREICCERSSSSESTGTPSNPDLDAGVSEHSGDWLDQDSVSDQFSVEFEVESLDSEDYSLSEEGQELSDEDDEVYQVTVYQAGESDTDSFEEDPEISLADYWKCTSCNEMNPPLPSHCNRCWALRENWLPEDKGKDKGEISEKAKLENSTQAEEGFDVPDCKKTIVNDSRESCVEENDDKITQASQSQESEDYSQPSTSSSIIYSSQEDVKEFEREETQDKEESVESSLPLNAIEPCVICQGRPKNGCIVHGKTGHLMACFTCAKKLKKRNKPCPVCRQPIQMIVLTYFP
Large T antigen, sequence (P03070 whole entry): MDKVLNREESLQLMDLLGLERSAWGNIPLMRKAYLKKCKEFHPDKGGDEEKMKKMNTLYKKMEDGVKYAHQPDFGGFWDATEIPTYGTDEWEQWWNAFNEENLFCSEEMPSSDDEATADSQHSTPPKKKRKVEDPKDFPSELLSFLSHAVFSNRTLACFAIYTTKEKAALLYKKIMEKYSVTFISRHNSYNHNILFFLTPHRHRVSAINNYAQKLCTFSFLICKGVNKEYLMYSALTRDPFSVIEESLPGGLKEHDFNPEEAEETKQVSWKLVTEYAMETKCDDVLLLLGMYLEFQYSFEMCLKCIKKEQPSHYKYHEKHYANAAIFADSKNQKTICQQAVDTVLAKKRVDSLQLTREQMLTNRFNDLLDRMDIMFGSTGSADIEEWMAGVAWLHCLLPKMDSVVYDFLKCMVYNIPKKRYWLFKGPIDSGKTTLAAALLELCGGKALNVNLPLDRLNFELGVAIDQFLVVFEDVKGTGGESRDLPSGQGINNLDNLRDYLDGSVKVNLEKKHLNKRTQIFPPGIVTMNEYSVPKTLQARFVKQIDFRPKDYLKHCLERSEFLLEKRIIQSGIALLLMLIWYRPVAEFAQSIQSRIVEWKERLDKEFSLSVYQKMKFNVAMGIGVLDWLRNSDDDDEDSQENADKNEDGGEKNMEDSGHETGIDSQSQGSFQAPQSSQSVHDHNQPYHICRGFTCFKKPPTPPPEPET

COc1ccc(S(=O)(=O)NN(C)c2ncc(C(F)(F)F)cc2Cl)cc1
EC50 [1]: 0.38 µM (not active)

CCn1c(CSc2n[nH]c(N)n2)nc2cc(C(=O)O)ccc21
IC50 [2]: > 100 µM (inactive) | AC50 [3]: 79 µM (active) | IC50 [4]: 8.92 µM (active) | IC50 [5]: > 83.3 µM (inactive)

O=C(Nc1cccc2c1[nH]c1ccccc12)C(F)(F)F
IC50 [6]: 2.48 µM (active) | EC50 [7]: 31.8 µM (inactive)

CN(c1ccccc1)S(=O)(=O)c1ccc(Cl)c(C(=O)Nc2ccc(-c3nc4ccccc4[nH]3)cc2)c1
EC50 [8]: 1.68 µM (active) | EC50 [9]: > 30 µM (not active) | IC50 [4]: > 83.3 µM (inactive) | IC50 [5]: > 83.3 µM (inactive)

COc1ccccc1N1C(=O)NC(=O)/C(=C/c2ccc([N+](=O)[O-])s2)C1=O
EC50 [10]: 44.1 µM (active) | EC50 [11]: 23 µM (active) | IC50 [12]: > 100 µM (active) | IC50 [13]: > 100 µM (active)

CC1C(=O)N2CCCc3cc(NC(=O)C(=O)NCc4cccnc4)cc1c32 (configuration not stated)
CC50 [14]: > 40 µM (active)

COc1ccccc1N=C(S)Nc1cccc2cnccc12
IC50 [15]: > 50 µM (not active) | AC50 [16]: 10.1 µM (active)

CC(C)Cc1ccc(C(C)C(=N)N)cc1 (configuration not stated)
CC50 [14]: > 40 µM (active) | IC50 [17]: > 100 µM (active)

CN(C)C(=O)c1ccc(-c2ccc([C@@H]3[C@H]4CN(C(=O)CC5CC5)CC(=O)N4[C@H]3CO)cc2)cc1
AC50 [18]: 14.4 µM (active)

Cc1ccccc1-c1ccc2c(c1)O[C@H](CN(C)C(=O)Nc1ccc(C(F)(F)F)cc1)[C@@H](C)CN([C@@H](C)CO)S2(=O)=O
AC50 [18]: 5.32 µM (active)
